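Where inhibition never reached the appropriate level, the endpoint shown equals the highest concentration tested. Otherwise, values were interpolated linearly from a five-concentration, 48-hour dose response in 96-well plates. TGI: total growth inhibition.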
Key:
Test in all cases: inhibition of tumour cell growth, NCI panel, 48 h
[1] = system: 786-0 renal
[2] = system: A498 renal
[3] = system: A549 NSCLC
[4] = system: ACHN renal
[5] = system: CAKI-1 renal
[6] = system: CCRF-CEM leukemia
[7] = system: COLO 205 colon
[8] = system: DU-145 prostate
[9] = system: EKVX NSCLC
[10] = system: HCC-2998 colon
[11] = system: HCT-116 colon
[12] = system: HCT-15 colon
[13] = system: HL-60(TB) leukemia
[14] = system: HOP-62 NSCLC
[15] = system: HOP-92 NSCLC
[16] = system: HS 578T breast
[17] = system: HT29 colon
[18] = system: IGROV1 ovarian
[19] = system: KM12 colon
[20] = system: LOX IMVI melanoma
[21] = system: M14 melanoma
[22] = system: MALME-3M melanoma
[23] = system: MCF7 breast
[24] = system: MDA-MB-231 breast
[25] = system: MDA-MB-435
[26] = system: MDA-N
[27] = system: MOLT-4 leukemia
[28] = system: NCI-H226 lung
[29] = system: NCI-H23 lung
[30] = system: NCI-H522 lung
[31] = system: NCI/ADR-RES ovarian
[32] = system: OVCAR-3 ovarian
[33] = system: OVCAR-4 ovarian
[34] = system: OVCAR-5 ovarian
[35] = system: OVCAR-8 ovarian
[36] = system: PC-3 prostate
[37] = system: RPMI-8226 leukemia
[38] = system: RXF 393 renal
[39] = system: SF-268 CNS
[40] = system: SF-295 CNS
[41] = system: SF-539 CNS
[42] = system: SK-MEL-2 melanoma
[43] = system: SK-MEL-28 melanoma
[44] = system: SK-MEL-5 melanoma
[45] = system: SK-OV-3 ovarian
[46] = system: SN12C renal
[47] = system: SNB-19 CNS
[48] = system: SNB-75 CNS
[49] = system: SW-620 colon
[50] = system: T-47D breast
[51] = system: TK-10 renal
[52] = system: U251 CNS
[53] = system: UACC-257 melanoma
[54] = system: UACC-62 melanoma
[55] = system: UO-31 renal
[56] = system: BT-549 breast
[57] = system: K-562 leukemia
[58] = system: SR leukemia

Measured: TGI

CSc1nc(-c2ccccc2)nc(C(C#N)C#N)n1
not listed: [56] | [57] | [58]
> 100 µM: all other assays above

O=C1CCCCCCCCCCC1CN1CCOCC1 (stereo unspecified)
not listed: [2] | [5] | [17] | [20] | [31] | [42] | [48]
> 100 µM: all other assays above

From PubChem BioAssay (NCI)
